Earlier results as cited in patent US9750672B1, “Aloe derived mineral supplement” (AL Global Inc., priority 2013, dated 2017).

Experiments:
[1] = magnesium load 25 mmol; for increment in urinary magnesium during 4 hours post-load: p<0.05; for increment in urinary magnesium during second 2 hours post-load: p less than 0.05

Row | Compound | increment in urinary magnesium during 4 hours post-load [1] | increment in urinary magnesium during second 2 hours post-load [1] | solubility in simulated peak acid secretion (24.2 mEq hydrochloric acid/300 ml) | solubility in water (water)
1 | Magnesium citrate | 0.22 mg/mg creatinine | 0.035 mg/mg creatinine | – | –
2 | [O]=[Mg] [Magnesium oxide] | 0.006 mg/mg creatinine | 0.008 mg/mg creatinine | 43% | virtually insoluble
